Here are results for 43 compounds from a melting point compilation (Tetko et al.).

Molecules are shown by their SMILES.

As a reminder, the melting point is the temperature, or range, at which the solid turns liquid. In turn, `CC12CCC3C(CCC4=CC(=O)CCC43C)C1CCC2=O` (stereo not drawn) gave a melting point of 170 to 171 °C.
Then `C=C(C)C1Cc2c(cc(O)c3c2OC2COc4cc(OC)c(OC)cc4C2C3=O)O1` (stereo not drawn), with 195 °C; and `O=C(CCCCl)c1ccc(O)cc1`, with 113 °C.
The same measure for `CCOC(=O)Cc1ccccc1Br`: 37 °C; for `CC12C=CC3=C4CCC(=O)C=C4CCC3C1CCC2O` (stereo not drawn): 93 °C.
The same measure for `CSC(=CC(=C(C#N)C#N)c1ccccc1)SC`: 117 to 121 °C.
`Cc1cccc2c1/C(=N/Nc1ccc([N+](=O)[O-])cc1[N+](=O)[O-])C2` showed a melting point of 228 °C.
The compound `Oc1ccc(Cl)c(Cl)c1Cl` gave a melting point of 83.5 °C.
The same measure for `O=C(Nc1ccc(Cl)cc1C(O)c1ccccc1)c1ccncc1` (stereo not drawn): 211 °C; for `CSC(SC)=C(C#N)C(=O)c1cccc(C)c1`: 53 to 55 °C; for `Cc1cc(Cl)ccc1N=CN(C)C`: 35 °C.
Take `BrC(Br)=Cc1ccccc1`: the melting point worked out at 75 °C.
`CCCC1C(=O)N2C(N(C)C)=Nc3ccc(C)cc3N2C1=O` (stereo not drawn) registered a melting point of 228 °C.
The same measure for `Cc1nccnc1C`: 11 to 13 °C; for `CSc1nc(N)nc(C(C)(C)C)n1`: 102 to 104 °C; for `C1=CCCC=CCC1`: -56.4 °C.
`Nc1ccc2c(c1)CCCC2=O`: the melting point was 130 to 131 °C.
Then `O=CC(Br)=C(Br)C(=O)O`, with 123 °C; and `N#CC(C#N)=C(SCc1ccccc1)SCc1ccccc1`, with 82 °C; and `Nc1ccc(SC(F)(F)F)c(Cl)c1`, with 43 °C.
The same measure for `O=C(O)C(F)(F)C(F)(F)C(F)(F)C(=O)O`: 94.5 °C; for `OCc1csc(-c2cccc(Cl)c2)n1`: 93 to 95 °C; for `CCOC(=O)C(N)=O`: 112 to 115 °C.
The same measure for `FC(F)(F)C(F)(F)C(F)(F)F`: -148 °C.
In turn, `Nc1cccc2c(O)cccc12` showed a melting point of 189 °C.
Then `O=[N+]([O-])c1ccc2c(c1)-c1ccc([N+](=O)[O-])c3cccc-2c13`, with 223 °C; and `CN(C)C=C[N+](=O)[O-]`, with 103 to 105 °C; and `O=C(O)C(Cl)Cl`, with 13.5 °C.
Consider `C1=Cc2ccccc2CC1`, for which the melting point was -8 °C.
Then `COc1cc(C=CC(=O)O)ccc1OCc1ccccc1`, with 192 °C.
Turning to `CC1OC(Oc2c(-c3ccc(O)c(O)c3)oc3cc(O)cc(O)c3c2=O)C(O)C(O)C1O` (stereo not drawn), the melting point came to 170 °C.
The same measure for `N#C/C(=N\Nc1ccccc1[N+](=O)[O-])c1nc2ccccc2[nH]1`: 270 °C; for `COC(=O)c1scc(C#N)c1-n1cccc1`: 87 to 90 °C.
Consider `COc1cccc2cc(C(=O)Cc3c(C)cc(C)cc3C)oc12`, for which the melting point lay in the range of 121 to 122 °C.
Compound `C/C=C/C=C(C)/C=N/Nc1ccc([N+](=O)[O-])cc1[N+](=O)[O-]` registered a melting point of 198 to 200 °C.
The same measure for `C(#Cc1ccc(C#Cc2ccccc2)cc1)c1ccccc1`: 177 °C.
In the case of `C=C1C(C)CCC2(C)C3=C(C(=O)C4(CC4C)C(OC(C)=O)C3=O)C(OC(C)=O)C(O)C12` (stereo not drawn), the melting point is 233 °C.
Then `C#CC1(O)c2ccccc2-c2ccccc21`, with 110 °C; and `Cc1cc(C(=O)Nc2ccccc2)no1`, with 136 to 139 °C; and `NC(Cc1ccc([N+](=O)[O-])cc1)C(=O)O` (racemic), with 236 to 237 °C.
Then `O=C(O)c1cc(C(F)(F)F)ccc1C(F)(F)F`, with 79 °C.
The same measure for `COc1cccc(-c2ccc(C(=O)O)o2)c1`: 169 to 170 °C; for `O=c1[nH]c2ccccc2n1C1=CCNCC1`: 195 to 200 °C.
